Values quoted from earlier work as cited in patent US20070092573A1, “STABILIZED EXTENDED RELEASE PHARMACEUTICAL COMPOSITIONS COMPRISING A BETA-ADRENORECEPTOR ANTAGONIST” (priority 2005, published 2007).

water solubility: highly water-soluble
SMILES: COCCc1ccc(OCC(O)CNC(C)C)cc1 (stereo not shown) [Metoprolol Succinate]
